In patent publication US11091511B2, “Panaxdiol-type ginsenoside derivative, preparation method therefor and use thereof” (ARMY MEDICAL UNIVERSITY, priority 2016, dated 2021):
Marks after values point to notes of the source that are not given here.

Key:
[1] = test system: RAW264.7 cell-derived foam cells; assay: Formation of RAW264.7 cell-derived foam cells (ox-LDL, oil red O, absorbance 490 nm); format: cell-based, mouse; conditions: 48 hours, model group = 100%, x ± s, n = 3
Procedure: The effects of the compounds prepared in Examples 1-30 of the present invention on the formation of RAW264.7 cell-derived foam cells, the specific steps are as follows:
1. Cell culture and foam cell model establishment:
RAW264.7 cells were cultured in DMEM culture medium with high glucose level (GIBCO) to a cell concentration of 1×10^6, planted in a 6-well plate, and 60 mg/L of ox-LDL (oxidized modified low-density lipoprotein, Peking Union Medical College) was added, foam cells were obtained after 48 hours of incubation.
2. Grouping and index detection:
The obtained foam cells were divided into 61 groups, 3 well plates were included in one group. After the treatment by adding the drugs (100 μL/well) for 48 hours, the medium was discarded, and after oil red 0 staining, the excess amount of oil red 0 was washed away. The cells were dissolved in isopropanol and the absorbance values were measured at 490 nm. The OD value of the model group was 100%, and the OD value of each group corrected by the number of cells was compared with the model group to obtain the ratio of intracellular lipid content. The larger the value, the more intracellular lipids, the higher the degree of formation of foam cells.
Normal saline control group: normal saline
Low dose groups of the compounds prepared in Examples 1-30 of the present invention:
10 μmol/L (solvents were normal saline).
High dose groups of compounds prepared in Examples 1-30 of the present invention: 30 μmol/L (solvents were normal saline).
Data were expressed as x±s, and SPSS 10.0 line single-factor analysis of variance was performed amoung groups, a significant difference was indicated when p<0.05.

apoE−/− mice [2] = assay: Atherosclerotic plaque area to total aortic area in apoE-/- mice on high-fat diet (Sudan IV staining); format: in vivo, mouse; conditions: intragastric 15 weeks, compounds 30 mg/(kg·d), simvastatin 10 mg/(kg·d), x ± s, n = 5, saline control 14.67 ± 3.58
Excerpt: The effects of the compounds prepared in Examples 1-30 of the present invention on the percentages of areas of atherosclerotic plaque formation to the area of the entire artery in apoE−/− mice with a high-fat diet and the levels of low-density lipoprotein cholesterol and the levels of high-density lipoprotein, the specific steps are as follows: 1. animals: 160 ten-week-old, healthy and clean-grade apoE−/− mice (purchased from Peking University Experimental Animal Center), males, weight: 22-25 g, were housed in separate cages in a sterile laminar feeding room and fed freely. The mice were fed by a high-fat diet (conventional feed+0.15% cholesterol+21% lard) for 25 weeks, the room temperature was kept at 24° C., relative humidity: 50%, illumination time 7:30-19:30. 2. Grouping, administration method: after 10 weeks of feeding, the animals were divided into the following 32 groups (n=5) by weight in a balanced and random manner, and killed 15 weeks after administration. Normal saline control group: normal saline, intragastric administration. Positive control group: simvastatin 10 mg/(kg·d), intragastric administration. The compound groups prepared in Examples 1-30 of the present invention (30 groups in total): each was intragastric administered 30 mg/(kg·d). (1) Analysis of the area of atherosclerotic plaque and its percentage to total area: after the animals were killed, the aortas were separated, from the roots of the aortas to the terminal bifurcations of the abdominal aortas. After formalin fixation, the aortas were stained with Sudan IV, the red stained parts were the areas of atherosclerotic lesions. The percentage of the area of the lesion area to total area was calculated using Image Pro Plus 5.0 software. Data were expressed as x±s, and SPSS 10.0 line single-factor analysis of variance was performed among groups, a significant difference was indicated when p<0.05.

TNF-α = assay: Local TNF-α level in the arteries of apoE-/- mice (Millipore liquid phase chip); format: in vivo, mouse; conditions: high-fat diet, intragastric 15 weeks, compounds 30 mg/(kg·d), simvastatin 10 mg/(kg·d), x ± s, n = 5, saline control 25.58 ± 6.44
Excerpt: The effects of the compounds prepared in Examples 1-30 of the present invention on the percentages of areas of atherosclerotic plaque formation to the area of the entire artery in apoE−/− mice with a high-fat diet and the levels of low-density lipoprotein cholesterol and the levels of high-density lipoprotein, the specific steps are as follows: 1. animals: 160 ten-week-old, healthy and clean-grade apoE−/− mice (purchased from Peking University Experimental Animal Center), males, weight: 22-25 g, were housed in separate cages in a sterile laminar feeding room and fed freely. The mice were fed by a high-fat diet (conventional feed+0.15% cholesterol+21% lard) for 25 weeks, the room temperature was kept at 24° C., relative humidity: 50%, illumination time 7:30-19:30. 2. Grouping, administration method: after 10 weeks of feeding, the animals were divided into the following 32 groups (n=5) by weight in a balanced and random manner, and killed 15 weeks after administration. Normal saline control group: normal saline, intragastric administration. Positive control group: simvastatin 10 mg/(kg·d), intragastric administration. The compound groups prepared in Examples 1-30 of the present invention (30 groups in total): each was intragastric administered 30 mg/(kg·d). (3) Determination of TNF-α level: Millipore liquid phase chip method was used for the determination (Mcytomag-70K-3, Mouse Cytokine/Chemokine Magnetic Bead Panel). Data were expressed as x±s, and SPSS 10.0 line single-factor analysis of variance was performed among groups, a significant difference was indicated when p<0.05.

RAW264.7 cells = assay: RAW264.7 cell survival rate by CCK8 method; format: cell-based, mouse; conditions: compound 10 prnol/L, 0.1% DMSO, CCK8, x ± s, n = 3, normal saline control = 1
Procedure: In order to further verify the toxicities of the compounds prepared in Examples 1-30 of the present invention, the mouse macrophage cell line RAW264.7 was cultured, and the compounds prepared in Examples 1-30 of the invention were prepared to a concentration of […] using culture medium, wherein the solvent was normal saline, the co-solvent was dimethyl sulfoxide (DMSO, the final concentratoin was 0.1%), and a 0.1% DMSO saline control group was provided. The cell survival rate was determined by CCK8 method. The data were expressed as x±s. SPSS 10.0 line single-factor analysis of variance was performed among groups. The difference was significant when p<0.05.

apoE−/− mice [3] = assay: Blood lipids (LDL-C, HDL-C) in apoE-/- mice on high-fat diet; format: in vivo, mouse; conditions: apoE-/- mice serum, intragastric 15 weeks, compounds 30 mg/(kg·d), simvastatin 10 mg/(kg·d), x ± s; for HDL-C: n = 5, saline control 3.74 ± 0.62; for LDL-C: n = 5, saline control 7.33 ± 1.03
Excerpt: The effects of the compounds prepared in Examples 1-30 of the present invention on the percentages of areas of atherosclerotic plaque formation to the area of the entire artery in apoE−/− mice with a high-fat diet and the levels of low-density lipoprotein cholesterol and the levels of high-density lipoprotein, the specific steps are as follows:
1. animals: 160 ten-week-old, healthy and clean-grade apoE−/− mice (purchased from Peking University Experimental Animal Center), males, weight: 22-25 g, were housed in separate cages in a sterile laminar feeding room and fed freely. The mice were fed by a high-fat diet (conventional feed+0.15% cholesterol+21% lard) for 25 weeks, the room temperature was kept at 24° C., relative humidity: 50%, illumination time 7:30-19:30.
2. Grouping, administration method:
after 10 weeks of feeding, the animals were divided into the following 32 groups (n=5) by weight in a balanced and random manner, and killed 15 weeks after administration.
Normal saline control group: normal saline, intragastric administration.
Positive control group: simvastatin 10 mg/(kg·d), intragastric administration.
The compound groups prepared in Examples 1-30 of the present invention (30 groups in total): each was intragastric administered 30 mg/(kg·d).
(2) Determination of the levels of total cholesterol (TC), low-density cholesterol lipoprotein (LDL-C) and high-density lipoprotein cholesterol (HDL-C): using ROCHE 7060 automatic biochemical analyzer for the determination.
Data were expressed as x±s, and SPSS 10.0 line single-factor analysis of variance was performed among groups, a significant difference was indicated when p<0.05.

SMILES	Foam cell formation (%) ([1]; dose 10 μmol/L)	Foam cell formation (%) ([1]; dose 30 μmol/L)	Plaque area/total aorta area (%) (apoE−/− mice [2])	TNF-α level (ng/g) (TNF-α)	Cell Survival Rate (RAW264.7 cells)	HDL-C (apoE−/− mice [3])	LDL-C (apoE−/− mice [3])
CC(=O)OC[C@H]1O[C@H](O[C@@](C)(CCC=C(C)C)C2CC[C@]3(C)[C@@H]2C(OC(C)=O)CC2[C@@]4(C)CC[C@H](OC(C)=O)C(C)(C)C4CC[C@]23C)[C@H](OC(C)=O)[C@@H](OC(C)=O)[C@@H]1OC(C)=O (some centres unmarked) [Compound 1]	83 ± 12%	65 ± 18 ^a %	10.65 ± 2.62 ^a %	19.41 ± 3.81 ^a ng/g	0.65 ± 0.07 ^a	4.55 ± 0.86 ^a mmol/L	6.39 ± 1.09 mmol/L
CC(=O)OC[C@H]1O[C@H](O[C@@](C)(CCC2OC2(C)C)C2CC[C@]3(C)[C@@H]2C(OC(C)=O)CC2[C@@]4(C)CC[C@H](OC(C)=O)C(C)(C)C4CC[C@]23C)[C@H](OC(C)=O)[C@@H](OC(C)=O)[C@@H]1OC(C)=O (some centres unmarked) [Compound 2]	70 ± 25 ^a %	64 ± 19%	8.27 ± 2.54 ^a %	13.24 ± 3.71 ^a ng/g	0.51 ± 0.08 ^a	5.47 ± 0.91 ^a mmol/L	5.56 ± 1.24 ^a mmol/L
CC(=O)OC[C@H]1O[C@H](O[C@@](C)(CCC=O)C2CC[C@]3(C)[C@@H]2C(OC(C)=O)CC2[C@@]4(C)CC[C@H](OC(C)=O)C(C)(C)C4CC[C@]23C)[C@H](OC(C)=O)[C@@H](OC(C)=O)[C@@H]1OC(C)=O (some centres unmarked) [Compound 3]	85 ± 20%	72 ± 13 ^a %	9.74 ± 3.19 ^a %	16.68 ± 4.98 ^a ng/g	0.42 ± 0.03 ^a	4.97 ± 0.95 ^a mmol/L	6.12 ± 1.28 mmol/L
COC(=O)[C@H](CC(C)C)NCCC[C@](C)(O[C@H]1O[C@H](COC(C)=O)[C@@H](OC(C)=O)[C@H](OC(C)=O)[C@H]1OC(C)=O)C1CC[C@]2(C)[C@@H]1C(OC(C)=O)CC1[C@@]3(C)CC[C@H](OC(C)=O)C(C)(C)C3CC[C@]12C (some centres unmarked) [Compound 4]	74 ± 15 ^a %	54 ± 12 ^a %	9.52 ± 4.21 ^a %	11.04 ± 3.68 ^a ng/g	0.84 ± 0.02	5.48 ± 0.61 ^a mmol/L	4.62 ± 1.58 ^a mmol/L
COC(=O)[C@@H](NCCC[C@](C)(O[C@H]1O[C@H](COC(C)=O)[C@@H](OC(C)=O)[C@H](OC(C)=O)[C@H]1OC(C)=O)C1CC[C@]2(C)[C@@H]1C(OC(C)=O)CC1[C@@]3(C)CC[C@H](OC(C)=O)C(C)(C)C3CC[C@]12C)C(C)C (some centres unmarked) [Compound 5]	77 ± 18 ^a %	62 ± 13 ^a %	10.29 ± 2.67 ^a %	17.73 ± 4.87 ^a ng/g	0.87 ± 0.08	5.21 ± 0.73 ^a mmol/L	5.58 ± 1.89 ^a mmol/L
COC(=O)[C@H](NCCC[C@](C)(O[C@H]1O[C@H](COC(C)=O)[C@@H](OC(C)=O)[C@H](OC(C)=O)[C@H]1OC(C)=O)C1CC[C@]2(C)[C@@H]1C(OC(C)=O)CC1[C@@]3(C)CC[C@H](OC(C)=O)C(C)(C)C3CC[C@]12C)[C@@H](C)O (some centres unmarked) [Compound 6]	73 ± 16 ^a %	48 ± 14 ^a %	8.16 ± 2.83 ^a %	11.35 ± 4.97 ^a ng/g	0.83 ± 0.09	5.51 ± 0.94 ^a mmol/L	6.04 ± 1.07 mmol/L
COC(=O)[C@H](CO)NCCC[C@](C)(O[C@H]1O[C@H](COC(C)=O)[C@@H](OC(C)=O)[C@H](OC(C)=O)[C@H]1OC(C)=O)C1CC[C@]2(C)[C@@H]1C(OC(C)=O)CC1[C@@]3(C)CC[C@H](OC(C)=O)C(C)(C)C3CC[C@]12C (some centres unmarked) [Compound 7]	83 ± 13%	71 ± 13 ^a %	11.02 ± 2.71 ^a %	17.77 ± 4.63 ^a ng/g	0.86 ± 0.01	4.52 ± 0.46 ^a mmol/L	5.50 ± 1.82 ^a mmol/L
CCC(C)(C)C(=O)O[C@H]1C[C@@H](C)C=C2C=C[C@H](C)[C@H](CC[C@@H]3C[C@@H](O)CC(=O)O3)[C@H]21 [Simvastatin, simvastatin, reference compound]	–	–	7.95 ± 2.03 ^a %	14.84 ± 3.22 ^a ng/g	–	3.69 ± 0.72 ^a mmol/L	2.75 ± 1.89 ^a mmol/L
